Holding throughout (type): cell-based
In one test the target is T1, CaV2.2 (Homo sapiens, UniProt Q00975).
T1 construct: expressed in transfected cells; host or cells: unnamed doxycycline-inducible cell line
In words: High-throughput CaV2.2/Kir2.3 FLIPR fluorescent assay. The following applies: Fluo-4 FLIPR, closed or inactivated state not stated, read-out: FLIPR data CaV2.2. In a few lines:
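IC50 was derived by logistic fitting of the FLIPR Fluo-4 signal recorded over 3 min after a 130 mM KCl stimulus. Before stimulation, cells (channel expression induced with doxycycline, 29 °C on assay day) were kept in pH 7.4 buffer with 2 mM KCl for the closed-state format or 12.5 mM KCl for the inactivated-state format.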

Another test addresses T2, CaV3.1 (Homo sapiens, UniProt O43497).
T2 construct: expressed in transfected cells; host or cells: unnamed doxycycline-inducible cell line
In words: High-throughput CaV3.1 T-type FLIPR fluorescent assay. Particulars: Fluo-4 FLIPR. In a few lines: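 Doxycycline-induced CaV3.1 cells were loaded with Fluo-4 at 29 °C and pre-incubated with compound for 20 min at 29 °C in low-Ca2+ buffer (0.001 mM CaCl2, pH 7.2). Calcium entry was triggered by buffer containing 6 mM CaCl2, and Fluo-4 fluorescence was recorded on FLIPR for 3 min. IC50 came from logistic fits.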

Another test deals with T3, CaV3.2 (Homo sapiens, UniProt O95180).
T3 construct: expressed in transfected cells; host or cells: unnamed doxycycline-inducible cell line
In words: High-throughput CaV3.2/Kir2.3 T-type FLIPR fluorescent assay. The following applies: Fluo-4 FLIPR, closed or inactivated state not stated. Put shortly: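 Doxycycline-induced cells loaded with Fluo-4, preincubated 20 min at 29°C with compound in 2 mM KCl (closed-state) or 7.6 mM KCl (inactivated-state) buffer, pH 7.4. Calcium entry triggered by 12 mM or 14.5 mM KCl respectively; fluorescence read 3 min by FLIPR, IC50 from logistic fit.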

Like-named read-outs stand apart in the source and are kept apart here.

T1 sequence (Q00975 whole entry): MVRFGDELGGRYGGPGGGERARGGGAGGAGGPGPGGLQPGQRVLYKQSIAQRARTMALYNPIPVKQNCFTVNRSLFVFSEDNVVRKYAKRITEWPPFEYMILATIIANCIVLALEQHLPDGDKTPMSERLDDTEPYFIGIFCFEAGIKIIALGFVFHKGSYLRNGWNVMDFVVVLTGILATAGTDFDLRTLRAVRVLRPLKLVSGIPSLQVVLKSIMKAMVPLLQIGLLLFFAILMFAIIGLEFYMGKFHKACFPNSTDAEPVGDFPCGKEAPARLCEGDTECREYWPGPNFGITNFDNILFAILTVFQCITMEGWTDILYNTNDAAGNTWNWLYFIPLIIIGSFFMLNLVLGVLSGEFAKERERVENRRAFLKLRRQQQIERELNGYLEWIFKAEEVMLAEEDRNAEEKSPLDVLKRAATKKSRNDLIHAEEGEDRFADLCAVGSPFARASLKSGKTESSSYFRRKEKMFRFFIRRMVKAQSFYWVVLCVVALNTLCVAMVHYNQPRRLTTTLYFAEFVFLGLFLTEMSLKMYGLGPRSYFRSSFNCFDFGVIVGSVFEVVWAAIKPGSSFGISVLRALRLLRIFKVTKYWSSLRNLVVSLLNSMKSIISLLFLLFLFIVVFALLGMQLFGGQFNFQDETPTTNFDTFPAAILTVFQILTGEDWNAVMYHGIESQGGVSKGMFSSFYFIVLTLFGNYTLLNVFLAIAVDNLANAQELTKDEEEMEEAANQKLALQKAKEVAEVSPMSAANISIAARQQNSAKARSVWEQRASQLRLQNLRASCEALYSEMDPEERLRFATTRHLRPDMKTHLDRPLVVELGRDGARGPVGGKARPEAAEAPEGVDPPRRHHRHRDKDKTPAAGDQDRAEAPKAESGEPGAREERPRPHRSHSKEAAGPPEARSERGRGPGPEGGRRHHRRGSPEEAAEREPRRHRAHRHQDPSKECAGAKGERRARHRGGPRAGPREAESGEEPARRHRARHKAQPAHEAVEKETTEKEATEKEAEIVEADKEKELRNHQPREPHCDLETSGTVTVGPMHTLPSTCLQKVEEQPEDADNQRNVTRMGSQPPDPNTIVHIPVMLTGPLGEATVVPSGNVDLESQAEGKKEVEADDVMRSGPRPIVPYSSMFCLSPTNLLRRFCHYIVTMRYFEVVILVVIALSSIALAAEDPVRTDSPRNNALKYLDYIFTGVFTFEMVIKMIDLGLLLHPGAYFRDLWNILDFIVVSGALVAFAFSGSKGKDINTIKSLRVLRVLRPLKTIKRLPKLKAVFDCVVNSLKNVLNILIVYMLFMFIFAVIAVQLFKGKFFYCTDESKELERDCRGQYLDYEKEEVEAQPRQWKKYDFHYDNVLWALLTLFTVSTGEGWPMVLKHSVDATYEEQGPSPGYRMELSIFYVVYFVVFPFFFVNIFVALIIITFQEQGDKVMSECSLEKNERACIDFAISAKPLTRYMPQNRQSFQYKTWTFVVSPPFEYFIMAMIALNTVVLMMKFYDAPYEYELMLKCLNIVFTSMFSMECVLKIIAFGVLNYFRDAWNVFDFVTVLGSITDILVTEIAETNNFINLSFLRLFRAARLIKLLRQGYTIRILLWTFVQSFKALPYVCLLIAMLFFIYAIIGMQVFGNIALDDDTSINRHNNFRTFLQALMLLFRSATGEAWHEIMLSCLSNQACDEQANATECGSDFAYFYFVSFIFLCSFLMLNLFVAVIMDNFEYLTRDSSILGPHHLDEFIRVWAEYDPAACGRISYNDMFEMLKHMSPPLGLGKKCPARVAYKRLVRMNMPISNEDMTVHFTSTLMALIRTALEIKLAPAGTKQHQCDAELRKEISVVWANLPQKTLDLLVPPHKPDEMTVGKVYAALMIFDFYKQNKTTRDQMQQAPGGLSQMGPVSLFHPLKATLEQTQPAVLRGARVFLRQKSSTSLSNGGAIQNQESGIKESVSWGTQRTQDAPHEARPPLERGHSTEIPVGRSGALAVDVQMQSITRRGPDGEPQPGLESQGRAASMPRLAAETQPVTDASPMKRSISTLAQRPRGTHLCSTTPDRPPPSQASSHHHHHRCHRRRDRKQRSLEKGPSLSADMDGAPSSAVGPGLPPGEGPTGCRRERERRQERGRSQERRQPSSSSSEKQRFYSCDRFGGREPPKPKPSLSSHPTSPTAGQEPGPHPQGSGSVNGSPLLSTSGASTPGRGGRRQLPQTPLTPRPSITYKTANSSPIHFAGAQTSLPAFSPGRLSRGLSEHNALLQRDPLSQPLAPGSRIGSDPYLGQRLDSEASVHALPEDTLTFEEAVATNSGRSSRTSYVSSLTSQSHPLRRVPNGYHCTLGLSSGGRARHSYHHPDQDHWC
T1 sequence (P54284 whole entry partner): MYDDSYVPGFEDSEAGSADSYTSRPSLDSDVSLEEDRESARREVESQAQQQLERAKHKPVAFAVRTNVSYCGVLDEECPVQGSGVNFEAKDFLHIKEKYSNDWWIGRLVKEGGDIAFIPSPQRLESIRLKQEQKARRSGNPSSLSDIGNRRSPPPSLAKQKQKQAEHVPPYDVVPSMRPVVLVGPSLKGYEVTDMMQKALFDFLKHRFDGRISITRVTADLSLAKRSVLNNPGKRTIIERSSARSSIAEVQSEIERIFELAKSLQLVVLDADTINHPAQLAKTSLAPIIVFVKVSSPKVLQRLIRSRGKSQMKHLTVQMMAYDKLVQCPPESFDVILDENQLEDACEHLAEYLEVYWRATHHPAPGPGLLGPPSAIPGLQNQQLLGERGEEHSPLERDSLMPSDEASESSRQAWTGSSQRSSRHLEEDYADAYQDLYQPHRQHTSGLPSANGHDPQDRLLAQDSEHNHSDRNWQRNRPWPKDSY
T1 sequence (P54289 25-946 partner limits assumed): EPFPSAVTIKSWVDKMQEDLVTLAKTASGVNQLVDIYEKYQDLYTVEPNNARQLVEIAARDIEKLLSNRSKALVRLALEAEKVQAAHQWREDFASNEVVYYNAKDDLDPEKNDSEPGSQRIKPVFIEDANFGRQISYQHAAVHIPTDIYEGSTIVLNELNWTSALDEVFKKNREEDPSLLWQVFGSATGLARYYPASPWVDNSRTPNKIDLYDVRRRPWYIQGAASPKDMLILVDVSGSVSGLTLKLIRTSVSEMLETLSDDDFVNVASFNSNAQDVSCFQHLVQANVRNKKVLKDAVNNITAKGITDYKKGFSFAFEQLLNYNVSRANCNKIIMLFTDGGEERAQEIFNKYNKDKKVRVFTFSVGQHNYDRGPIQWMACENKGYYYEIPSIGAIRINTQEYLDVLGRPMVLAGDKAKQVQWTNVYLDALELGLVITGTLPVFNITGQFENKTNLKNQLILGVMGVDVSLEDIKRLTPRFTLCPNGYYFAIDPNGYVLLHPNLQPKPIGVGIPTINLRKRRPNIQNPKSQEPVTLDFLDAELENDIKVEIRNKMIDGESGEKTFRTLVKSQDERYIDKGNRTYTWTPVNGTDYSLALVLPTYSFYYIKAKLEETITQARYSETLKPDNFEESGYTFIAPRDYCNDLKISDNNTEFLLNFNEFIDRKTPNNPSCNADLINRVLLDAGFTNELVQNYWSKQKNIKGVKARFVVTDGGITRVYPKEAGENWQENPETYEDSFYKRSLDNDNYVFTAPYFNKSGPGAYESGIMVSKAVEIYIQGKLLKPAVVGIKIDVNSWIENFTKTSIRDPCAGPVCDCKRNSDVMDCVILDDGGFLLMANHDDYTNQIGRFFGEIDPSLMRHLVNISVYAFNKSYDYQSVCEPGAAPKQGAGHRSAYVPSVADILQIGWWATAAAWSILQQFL
T1 sequence (P54289 947-1103 partner limits assumed): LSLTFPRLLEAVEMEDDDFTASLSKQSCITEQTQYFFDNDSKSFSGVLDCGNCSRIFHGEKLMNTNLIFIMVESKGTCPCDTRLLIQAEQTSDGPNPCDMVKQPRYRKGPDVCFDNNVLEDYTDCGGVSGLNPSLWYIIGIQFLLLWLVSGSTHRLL

As for `CC(C)(C(=O)Nc1ccc(Oc2ccc(C(F)(F)F)nc2)nc1)S(=O)(=O)c1cccc(OC(F)(F)F)c1` [Compound 122, 2-methyl-2-((3-(trifluoromethoxy)phenyl)sulfonyl)-N-(6-((6-(trifluoromethyl)pyridin-3-yl)oxy)pyridin-3-yl)propanamide], the IC50 is 700 nM on CaV2.2 (Table 5), 4890 nM on CaV3.1 (Table 5) and 1640 nM on CaV3.2 (Table 5).
`O=C(NCc1ccc(S(=O)(=O)c2cccc(C(F)(F)F)c2)cc1)c1cnc(C(F)(F)F)nc1` [Compound 8, 2-(trifluoromethyl)-N-(4-((3-(trifluoromethyl)phenyl)sulfonyl)benzyl)pyrimidine-5-carboxamide]: the IC50 on CaV2.2 (Table 4) was determined as 510 nM; against CaV3.1 (Table 4) it was 2140 nM; against CaV3.2 (Table 4) it was 920 nM.
As for `O=C(NCc1ccc(S(=O)(=O)c2cccc(C(F)(F)F)c2)cn1)c1ccc(C(F)(F)F)nc1` [Compound 90, 6-(trifluoromethyl)-N-((5-((3-(trifluoromethyl)phenyl)sulfonyl)pyridin-2-yl)methyl)nicotinamide], the IC50 at CaV2.2 (Table 4) is 610 nM; on CaV3.1 (Table 4), 900 nM; at CaV3.2 (Table 4), 2070 nM.
Regarding `CS(=O)(=O)c1cc(C(=O)NCc2ccccc2S(=O)(=O)c2cccc(C(F)(F)F)c2)cc(C(F)(F)F)n1` [Compound 42, 2-(methylsulfonyl)-6-(trifluoromethyl)-N-(2-((3-(trifluoromethyl)phenyl)sulfonyl)benzyl)isonicotinamide], the IC50 on CaV2.2 (Table 4) amounted to 640 nM; against CaV3.1 (Table 4), 2890 nM; against CaV3.2 (Table 4), 3240 nM.
For the molecule `O=C(NCc1cccc(S(=O)(=O)c2cccc(C(F)(F)F)c2)c1)c1ccnn1CC(F)(F)F` [Compound 29, 1-(2,2,2-trifluoroethyl)-N-(3-((3-(trifluoromethyl)phenyl)sulfonyl)benzyl)-1H-pyrazole-5-carboxamide], the IC50 is 340 nM on CaV2.2 (Table 4), 1850 nM on CaV3.1 (Table 4) and 600 nM on CaV3.2 (Table 4).
On to `CS(=O)(=O)c1nc(C(F)(F)F)ccc1C(=O)NCc1ccc(S(=O)(=O)c2cccc(C(F)(F)F)c2)cc1` [Compound 6, 2-(methylsulfonyl)-6-(trifluoromethyl)-N-(4-((3-(trifluoromethyl)phenyl)sulfonyl)benzyl)nicotinamide], for which the IC50 was found to be 710 nM on CaV2.2 (Table 4), 2340 nM against CaV3.1 (Table 4) and 1510 nM against CaV3.2 (Table 4).
In the case of `CC(C)(C(=O)NCC(O)c1ccc(C(F)(F)F)cc1)S(=O)(=O)c1cccc(C(F)(F)F)c1` (stereo not drawn) [Compound 140, N-(2-hydroxy-2-(4-(trifluoromethyl)phenyl)ethyl)-2-methyl-2-((3-(trifluoromethyl)phenyl)sulfonyl)propanamide], the IC50 at CaV2.2 (Table 5) was 410 nM; against CaV3.1 (Table 5) it was 8220 nM; against CaV3.2 (Table 5), 5090 nM.
For the molecule `CS(=O)(=O)c1cc(C(F)(F)F)ccc1C(=O)NCc1ccc(S(=O)(=O)c2cccc(C(F)(F)F)c2)cn1` [Compound 99, 2-(methylsulfonyl)-4-(trifluoromethyl)-N-((5-((3-(trifluoromethyl)phenyl)sulfonyl)pyridin-2-yl)methyl)benzamide], the IC50 is 910 nM at CaV2.2 (Table 4), 1270 nM against CaV3.1 (Table 4) and 1320 nM against CaV3.2 (Table 4).
On to `O=C(NCc1ccccc1S(=O)(=O)c1cccc(C(F)(F)F)c1)c1ccc(C(F)(F)F)cn1` [Compound 39, 5-(trifluoromethyl)-N-(2-((3-(trifluoromethyl)phenyl)sulfonyl)benzyl)picolinamide], for which the results for the IC50 at CaV2.2 (Table 4), against CaV3.1 (Table 4) and at CaV3.2 (Table 4) were 740 nM, 1040 nM and 1250 nM, respectively.
In the same order, the values of `CC(C)S(=O)(=O)c1cc(C(F)(F)F)cnc1C(=O)NCc1ccc(S(=O)(=O)c2cccc(C(F)(F)F)c2)cn1` [Compound 96, 3-(isopropylsulfonyl)-5-(trifluoromethyl)-N-((5-((3-(trifluoromethyl)phenyl)sulfonyl)pyridin-2-yl)methyl)picolinamide] are 640 nM, 1560 nM and 2140 nM.
Taken in the same sequence, the figures for `O=C(NCc1ccc(S(=O)(=O)c2cccc(C(F)(F)F)c2)cc1)c1ccc(Cl)c(F)c1` [Compound 1, 4-chloro-3-fluoro-N-(4-((3-(trifluoromethyl)phenyl)sulfonyl)benzyl)benzamide] were 760 nM, 1290 nM and 620 nM.
As for `O=C(NCc1ccc(S(=O)(=O)c2cccc(C(F)(F)F)c2)cc1)[C@@H]1C[C@@H](C2CCCCC2)CN1` [Compound 72, (2S,4S)-4-cyclohexyl-N-(4-((3-(trifluoromethyl)phenyl)sulfonyl)benzyl)pyrrolidine-2-carboxamide], the IC50 at CaV2.2 (Table 4) was determined as 760 nM; against CaV3.1 (Table 4), 8900 nM; at CaV3.2 (Table 4), 2320 nM.
Taken in the same sequence, the figures for `O=C(NCc1ccc(S(=O)(=O)c2cccc(C(F)(F)F)c2)cn1)c1cn2cc(C(F)(F)F)ccc2n1` [Compound 103, 6-(trifluoromethyl)-N-((5-((3-(trifluoromethyl)phenyl)sulfonyl)pyridin-2-yl)methyl)imidazo[1,2-a]pyridine-2-carboxamide] were 830 nM, 2060 nM and 1250 nM.
As to `O=C(NCc1ccc(S(=O)(=O)c2cccc(C(F)(F)F)c2)cc1)c1cc(F)cc(Cl)c1` [Compound 2, 3-chloro-5-fluoro-N-(4-((3-(trifluoromethyl)phenyl)sulfonyl)benzyl)benzamide], the IC50 stood at 950 nM on CaV2.2 (Table 4), 1500 nM against CaV3.1 (Table 4) and 850 nM on CaV3.2 (Table 4).
Turning to `CN(CCc1c[nH]c2ccc(F)cc12)C(=O)C(C)(C)S(=O)(=O)c1cccc(C(F)(F)F)c1` [Compound 135, N-(2-(5-fluoro-1H-indol-3-yl)ethyl)-N,2-dimethyl-2-((3-(trifluoromethyl)phenyl)sulfonyl)propanamide], the values for the IC50 at CaV2.2 (Table 5), at CaV3.1 (Table 5) and against CaV3.2 (Table 5) were 1290 nM, 7950 nM and 5840 nM, respectively.
Consider `CC(C)(C(=O)Nc1ccc(Oc2ccc(C(F)(F)F)cn2)nc1)S(=O)(=O)c1cccc(OC(F)(F)F)c1` [Compound 123, 2-methyl-2-((3-(trifluoromethoxy)phenyl)sulfonyl)-N-(6-((5-(trifluoromethyl)pyridin-2-yl)oxy)pyridin-3-yl)propanamide], for which the IC50 worked out at 920 nM on CaV2.2 (Table 5), 4990 nM against CaV3.1 (Table 5) and 3010 nM at CaV3.2 (Table 5).
`CC(C)(C(=O)NCc1ccccc1S(=O)(=O)c1cccc(C(F)(F)F)c1)S(=O)(=O)c1cccc(C(F)(F)F)c1` [Compound 227, 2-methyl-2-((3-(trifluoromethyl)phenyl)sulfonyl)-N-(2-((3-(trifluoromethyl)phenyl)sulfonyl)benzyl)propanamide]: the IC50 at CaV2.2 (Table 5) was 400 nM; against CaV3.1 (Table 5), 630 nM; against CaV3.2 (Table 5), 350 nM.
On to `CC(C)(CCNC(=O)C(C)(C)S(=O)(=O)c1cccc(C(F)(F)F)c1)S(=O)(=O)c1cccc(C(F)(F)F)c1` [Compound 150, 2-methyl-N-(3-methyl-3-((3-(trifluoromethyl)phenyl)sulfonyl)butyl)-2-((3-(trifluoromethyl)phenyl)sulfonyl)propanamide], for which the values for the IC50 on CaV2.2 (Table 5), at CaV3.1 (Table 5) and at CaV3.2 (Table 5) were 250 nM, 1770 nM and 1020 nM, respectively.
On to `O=C(NCc1cc(S(=O)(=O)c2cccc(C(F)(F)F)c2)ccn1)[C@@H]1C[C@@H](C2CCCCC2)CN1` [Compound 118, (2S,4S)-4-cyclohexyl-N-((4-((3-(trifluoromethyl)phenyl)sulfonyl)pyridin-2-yl)methyl)pyrrolidine-2-carboxamide], for which the results for the IC50 at CaV2.2 (Table 4), on CaV3.1 (Table 4) and on CaV3.2 (Table 4) were 760 nM, 4760 nM and 2400 nM, respectively.
On to `CC(C)(C(=O)NCCc1c[nH]c2ccc(F)cc12)S(=O)(=O)c1cccc(C(F)(F)F)c1` [Compound 131, N-(2-(5-fluoro-1H-indol-3-yl)ethyl)-2-methyl-2-((3-(trifluoromethyl)phenyl)sulfonyl)propanamide], for which the IC50 at CaV2.2 (Table 5) is 790 nM; at CaV3.1 (Table 5), 6660 nM; against CaV3.2 (Table 5), 5210 nM.
In the case of `O=C(NCc1ccc(S(=O)(=O)c2cccc(C(F)(F)F)c2)cc1)c1ccnc(C(F)(F)F)c1` [Compound 16, 2-(trifluoromethyl)-N-(4-((3-(trifluoromethyl)phenyl)sulfonyl)benzyl)isonicotinamide], the IC50 on CaV2.2 (Table 4) turned out to be 940 nM; at CaV3.1 (Table 4) it was 1430 nM; against CaV3.2 (Table 4) it was 640 nM.
For the molecule `CC(C)(C(=O)NC1CCN(c2ccc(C(F)(F)F)cc2)CC1)S(=O)(=O)c1cccc(C(F)(F)F)c1` [Compound 137, 2-methyl-N-(1-(4-(trifluoromethyl)phenyl)piperidin-4-yl)-2-((3-(trifluoromethyl)phenyl)sulfonyl)propanamide], the IC50 on CaV2.2 (Table 5) is 1610 nM; against CaV3.1 (Table 5), 4530 nM; against CaV3.2 (Table 5), 3000 nM.
In the case of `CS(=O)(=O)c1cc(C(=O)NCc2cccc(S(=O)(=O)c3cccc(C(F)(F)F)c3)c2)cc(C(F)(F)F)n1` [Compound 23, 2-(methylsulfonyl)-6-(trifluoromethyl)-N-(3-((3-(trifluoromethyl)phenyl)sulfonyl)benzyl)isonicotinamide], the results for the IC50 at CaV2.2 (Table 4), on CaV3.1 (Table 4) and on CaV3.2 (Table 4) were 490 nM, 2050 nM and 570 nM, respectively.

Source of the values: US20140113898A1, “BISARYLSULFONE AND DIALKYLARYLSULFONE COMPOUNDS AS CALCIUM CHANNEL BLOCKERS” (Zalicus Pharmaceuticals Ltd., priority 2010, published 2014).
